# Activity calls are given as the source filed them. The rule behind the calls is not given here. Positions of bridges follow the written chain, without caps; N, C: chain ends. Residues, ends and D or L forms follow the SMILES beside them.
# Columns and labels:
# MDA-MB-231 [1] = assay: Activation of CD95 cell death pathway in Fas-resistant human MDA-MB-231 cells pretreated for 6 hrs followed by treated with anti-Fas antibody assessed as increase in CD95 expression measured after 24 hrs by FACS analysis; assay type: functional, cell-based
# PC-3 [2] = assay: Cytotoxicity against human PC-3 cells assessed as dead cells at 30 uM measured after 24 to 72 hrs by FACS based Calcein A/EtBr-dimer LIVE/DEAD cell staining kit; assay type: functional; details: time 24-72 hrs
# PC-3 [3] = assay: Cytotoxicity against human PC-3 cells assessed as dead cells at 60 uM measured after 24 to 72 hrs by FACS based Calcein A/EtBr-dimer LIVE/DEAD cell staining kit; assay type: functional; details: time 24-72 hrs
# PC-3 [4] = assay: Cytotoxicity against human PC-3 cells assessed as dead cells measured after 24 to 72 hrs by FACS based Calcein A/EtBr-dimer LIVE/DEAD cell staining kit; assay type: functional
# MDA-MB-231 [5] = assay: Cytotoxicity against human MDA-MB-231 cells assessed as cell death measured by MTT assay; assay type: functional, cell-based
# PC-3 [6] = assay: Cytotoxicity against human PC-3 cells assessed as cell death measured by MTT assay; assay type: functional, cell-based
# DU-145 [7] = assay: Cytotoxicity against human DU-145 cells assessed as cell death measured by MTT assay; assay type: functional, cell-based
# LNCaP [8] = assay: Cytotoxicity against human LNCaP cells assessed as cell death measured by MTT assay; assay type: functional, cell-based
# [9] = Cytotoxicity against human ABC-TC3995 cells assessed as cell death measured by MTT assay; assay type: functional, cell-based
# [10] = Cytotoxicity against human iPSC cells assessed as cell death measured by MTT assay; assay type: functional, cell-based
# MDA-MB-231 [11] = assay: Cytotoxicity against human MDA-MB-231 cells assessed as cell death in presence of doxorubicin measured by MTT assay; assay type: functional, cell-based
# PC-3 [12] = assay: Cytotoxicity against human PC-3 cells assessed as cell death in presence of doxorubicin measured by MTT assay; assay type: functional, cell-based
# DU-145 [13] = assay: Cytotoxicity against human DU-145 cells assessed as cell death in presence of doxorubicin measured by MTT assay; assay type: functional, cell-based
# LNCaP [14] = assay: Cytotoxicity against human LnCAP cells assessed as cell death in presence of doxorubicin measured by MTT assay; assay type: functional, cell-based
# [15] = Cytotoxicity against human ABC-TC3995 cells assessed as cell death in presence of doxorubicin measured by MTT assay; assay type: functional, cell-based
# [16] = Cytotoxicity against human iPSC cells assessed as cell death in presence of doxorubicin measured by MTT assay; assay type: functional, cell-based
# MDA-MB-231 [17] = assay: Cytotoxicity against human MDA-MB-231 cells assessed as cell death in presence of docetaxel measured by MTT assay; assay type: functional, cell-based
# PC-3 [18] = assay: Cytotoxicity against human PC-3 cells assessed as cell death in presence of docetaxel measured by MTT assay; assay type: functional, cell-based
# DU-145 [19] = assay: Cytotoxicity against human DU-145 cells assessed as cell death in presence of docetaxel measured by MTT assay; assay type: functional, cell-based
# LNCaP [20] = assay: Cytotoxicity against human LNCaP cells assessed as cell death in presence of docetaxel measured by MTT assay; assay type: functional, cell-based
# [21] = Cytotoxicity against human ABC-TC3995 cells assessed as cell death in presence of docetaxel measured by MTT assay; assay type: functional, cell-based
# [22] = Cytotoxicity against human iPSC cells assessed as cell death in presence of docetaxel measured by MTT assay; assay type: functional, cell-based
# MDA-MB-231 [23] = assay: Synergistic cytotoxicity against Fas-resistant human MDA-MB-231 cells assessed as cell death at 10 uM in presence of 1 to 3 ug/ml doxorubicin measured after 24 to 72 hrs by fluorescent microscopy; assay type: functional, cell-based; details: time 24-72 hrs
# MDA-MB-231 [24] = assay: Synergistic cytotoxicity against Fas-resistant human MDA-MB-231 cells assessed as cell death at 10 uM in presence of 3 ug/ml doxorubicin measured after 24 to 72 hrs by fluorescent microscopy; assay type: functional; details: time 24-72 hrs
# MDA-MB-231 [25] = assay: In vivo antitumor activity against human MDA-MB-231 cells expressing FLuc-EGFP fusion protein xenografted in NOD-SCID mouse assessed as tumor regression at 50 mg/kg, ip measured upto day 13 by optical imaging based assay relative to control; assay type: functional, organism-based; details: time 13.0 day
# MDA-MB-231 [26] = assay: In vivo antitumor activity against human MDA-MB-231 cells expressing FLuc-EGFP fusion protein xenografted in NOD-SCID mouse assessed as tumor regression at 100 mg/kg, ip measured upto day 13 by optical imaging based assay relative to control; assay type: functional, organism-based; details: time 13.0 day
# MDA-MB-231 [27] = assay: In vivo antitumor activity against human MDA-MB-231 cells expressing FLuc-EGFP fusion protein xenografted in NOD-SCID mouse assessed as tumor regression at 200 mg/kg, ip measured upto day 13 by optical imaging based assay relative to control; assay type: functional, organism-based; details: time 13.0 day
# MDA-MB-231 [28] = assay: In vivo antitumor activity against human MDA-MB-231 cells expressing FLuc-EGFP fusion protein xenografted in NOD-SCID mouse assessed as loss of cellularity of tumor at 200 mg/kg, ip measured upto day 13 by H and E staining based assay; assay type: functional, organism-based
# [29] = Toxicity in NOD-SCID mouse xenografted in human MDA-MB-231 cells assessed as heart histology at 200 mg/kg, ip measured upto day 13 by H and E staining based assay; assay type: organism-based; details: in vivo
# [30] = Toxicity in NOD-SCID mouse xenografted in human MDA-MB-231 cells assessed as liver histology at 200 mg/kg, ip measured upto day 13 by H and E staining based assay; assay type: organism-based; details: in vivo
# [31] = Toxicity in NOD-SCID mouse xenografted in human MDA-MB-231 cells assessed as kidney histology at 200 mg/kg, ip measured upto day 13 by H and E staining based assay; assay type: organism-based; details: in vivo, 312 h, time 13 day
smiles,measurement,setting,value
CC[C@H](C)[C@H](NC(=O)[C@H](CCCCN)NC(=O)[C@@H](NC(=O)[C@H](Cc1ccccc1)NC(=O)[C@@H](NC(=O)[C@@H]1CCCN1C(=O)[C@H](CS)NC(=O)[C@H](C)NC(=O)[C@H](CO)NC(=O)[C@H](Cc1ccc(O)cc1)NC(=O)[C@H](CC(C)C)NC(=O)[C@H](CS)NC(=O)[C@H](CCC(N)=O)NC(=O)CNC(=O)CNC(=O)[C@H](CO)NC(=O)[C@H](CO)NC(=O)[C@@H](NC(=O)[C@H](CS)NC(=O)[C@H](CC(N)=O)NC(=O)[C@H](Cc1ccc(O)cc1)NC(=O)[C@H](Cc1c[nH]cn1)NC(=O)[C@@H](N)CC(=O)O)C(C)C)[C@@H](C)CC)[C@@H](C)O)C(=O)N[C@@H](CCC(N)=O)C(=O)NCC(=O)N[C@H](C(=O)N[C@@H](CS)C(=O)N[C@@H](Cc1ccc(O)cc1)C(=O)N[C@@H](CCCNC(=N)N)C(=O)NCC(=O)N[C@@H](CCCCN)C(=O)N[C@@H](C)C(=O)N[C@@H](CCCCN)C(=O)N[C@@H](CS)C(=O)N[C@@H](CS)C(=O)N[C@@H](CCCCN)C(=O)O)[C@@H](C)O (H-DHYNCVSSGGQCLYSACPIFTKIQGTCYRGKAKCCK-OH),Activity,MDA-MB-231 [1],inactive
"CC[C@H](C)[C@@H]1NC(=O)[C@H](CCCCN)NC(=O)[C@H]([C@@H](C)O)NC(=O)[C@H](Cc2ccccc2)NC(=O)[C@H]([C@@H](C)CC)NC(=O)[C@@H]2CCCN2C(=O)[C@@H]2CSSC[C@@H]3NC(=O)[C@H](CCCCN)NC(=O)[C@H](C)NC(=O)[C@H](CCCCN)NC(=O)CNC(=O)[C@H](CCCNC(=N)N)NC(=O)[C@H](Cc4ccc(O)cc4)NC(=O)[C@H](CSSC[C@H](NC(=O)[C@H](CCC(N)=O)NC(=O)CNC(=O)CNC(=O)[C@H](CO)NC(=O)[C@H](CO)NC(=O)[C@H](C(C)C)NC(=O)[C@@H](NC(=O)[C@H](CC(N)=O)NC(=O)[C@H](Cc4ccc(O)cc4)NC(=O)[C@H](Cc4c[nH]cn4)NC(=O)[C@@H](N)CC(=O)O)CSSC[C@@H](C(=O)N[C@@H](CCCCN)C(=O)O)NC3=O)C(=O)N[C@@H](CC(C)C)C(=O)N[C@@H](Cc3ccc(O)cc3)C(=O)N[C@@H](CO)C(=O)N[C@@H](C)C(=O)N2)NC(=O)[C@H]([C@@H](C)O)NC(=O)CNC(=O)[C@H](CCC(N)=O)NC1=O (H-DHYNCVSSGGQCLYSACPIFTKIQGTCYRGKAKCCK-OH; disulfide 5-35, 12-27, 17-34)",Activity,PC-3 [2],63.4%
same,Activity,PC-3 [3],97.2%
same,IC50,PC-3 [4],20 µM
same,IC50,MDA-MB-231 [5],24.5 µM
same,IC50,PC-3 [6],26.5 µM
same,IC50,DU-145 [7],5.8 µM
same,IC50,LNCaP [8],12.4 µM
same,IC50,[9],> 250 µM
same,IC50,[10],> 250 µM
same,IC50,MDA-MB-231 [11],3.8 µM
same,IC50,PC-3 [12],0.95 µM
same,IC50,DU-145 [13],0.25 µM
same,IC50,LNCaP [14],0.11 µM
same,IC50,[15],89.5 µM
same,IC50,[16],94.5 µM
same,IC50,MDA-MB-231 [17],6.5 µM
same,IC50,PC-3 [18],1.2 µM
same,IC50,DU-145 [19],0.45 µM
same,IC50,LNCaP [20],0.15 µM
same,IC50,[21],78.6 µM
same,IC50,[22],84.5 µM
same,Activity,MDA-MB-231 [23],Active
same,Activity,MDA-MB-231 [24],>90%
same,Activity,MDA-MB-231 [1],Dose-Dependent Effect
same,Activity,MDA-MB-231 [25],inactive
same,Activity,MDA-MB-231 [26],Active
same,Activity,MDA-MB-231 [27],Active
same,Activity,MDA-MB-231 [28],Active
same,Activity,[29],Non-Toxic
same,Activity,[30],Non-Toxic
same,Activity,[31],Non-Toxic
CC(=O)O[C@@]12CO[C@@H]1C[C@H](O)[C@@]1(C)C(=O)[C@H](O)C3=C(C)[C@@H](OC(=O)[C@H](O)[C@@H](NC(=O)OC(C)(C)C)c4ccccc4)C[C@@](O)([C@@H](OC(=O)c4ccccc4)[C@H]21)C3(C)C [DOCETAXEL ANHYDROUS],IC50,MDA-MB-231 [5],38.9 µM
same,IC50,PC-3 [6],12.5 µM
same,IC50,DU-145 [7],5.4 µM
same,IC50,LNCaP [8],12.3 µM
same,IC50,[9],16.5 µM
same,IC50,[10],18.6 µM
COc1cccc2c1C(=O)c1c(O)c3c(c(O)c1C2=O)C[C@@](O)(C(=O)CO)C[C@@H]3O[C@H]1C[C@H](N)[C@H](O)[C@H](C)O1 [DOXORUBICIN],IC50,MDA-MB-231 [5],46.5 µM
same,IC50,PC-3 [6],17.5 µM
same,IC50,DU-145 [7],12.4 µM
same,IC50,LNCaP [8],1.07 µM
same,IC50,[9],12.5 µM
same,IC50,[10],6.8 µM

# — ChEMBL document CHEMBL5550223, “Restoration of the Lost Human Beta Defensin-1 Protein in Cancer as a Strategy to Improve the Efficacy of Chemotherapy” (J Med Chem, 2024)
